How the values were obtained:
SW620 xenograft = test: Mouse SW620 xenograft model; format: in vivo
Description: FIG. 7A is a graph showing inhibition of tumor growth by CL16 in mouse HCT116 xenografts through intraperitoneal injection at 10 mg/kg (n=6 per group). FIG. 7B is a graph showing inhibition of tumor growth by CL16 in mouse HT29 xenografts through intraperitoneal injection at 10 mg/kg (n=7). FIG. 7C is a graph showing the body weight of mice with HT29 xenografts throughout the treatment with CL16. FIG. 7D is a graph showing inhibition of tumor growth by CL16 in mouse SW620 xenografts through intraperitoneal injection at 10 mg/kg (n=6 per group). FIG. 7E is a bar graph showing the tumor weight of harvested tumors from the treated mice with SW620 xenografts. FIG. 7F is a graph showing the body weight of mice with SW620 xenografts throughout the treatment with CL16. Statistical analysis using a two-tailed Student's t-test. *P<0.05.
7-week-old mice with weight around 20 g were inoculated subcutaneously with HCT116 (2×10^6 cells per mouse) or HT29 (3×10^6 cells per mouse) cells, in serum-free RMPI or Matrigel in PBS respectively. […] The tumor volume and body weight of the nude mice were measured throughout the treatment. The tumor volume was calculated by the equation: Volume (mm^3)=1×w^2/2, where 1 and w were the length and width of the tumor. At the end of the treatment, the mice were sacrificed and the tumor weight was measured. […]

[1] = system: HCT116, HT29 and SW620 cells; test: Immunoblotting of cell cycle checkpoint proteins; format: cell-based, human; details: HCT116, HT29 and SW620, 24 h
Description: Anti-RhoA (#2117), anti-GAPDH (#2118), anti-phosphoMLC (#3671), anti-MLC (#3672), anti-FLAG (#8146), anti-GFP (#2956), and anti-GST (#2624) were purchased from Cell Signaling Technology. Cells were washed with PBS and then harvested using cell lysis buffer (1% Triton X100, 10 mM beta glycerol phosphate, 10 mM sodium pyrophosphate, 40 mM HEPES, 4 mM EDTA, pH7.4) with 4% protease/phosphatase inhibitor cocktail (Pierce). Protein samples were quantified using BCA assays (Pierce), normalized and then boiled with 4× Laemmli sampling buffer in 95° C. for 5 mins. Samples were resolved in 10% polyacrylamide gel (Biorad) and then transferred onto PVDF membrane (Biorad) and blocked with blocking buffer (5% bovine serum albumin (BSA) in Tris-buffered saline with 0.1% Tween 20 (TBST)) for 1 h. Membrane was washed in TBST, followed by incubation with corresponding primary antibodies (diluted 1:1000 in 5% BSA/milk in TBST with 1% NaN3) overnight at 4° C. […]
The effects of CL16 treatment on cell cycle checkpoint proteins were investigated with immunoblotting of the cell cycle checkpoint proteins in SW620 and HT29 cells after CL16 treatment for 24 h. […] Caspase- 3/7 Green Detection Reagent was used to study apoptosis in HCT116 cells treated with Rhosin by confocal fluorescence imaging. […]

Cdc42 = Cdc42 (Homo sapiens, UniProt P60953); test: Gel-based competitive ABPP, second screening on Cdc42; format: binding
Sequence of Cdc42 (P60953 whole entry): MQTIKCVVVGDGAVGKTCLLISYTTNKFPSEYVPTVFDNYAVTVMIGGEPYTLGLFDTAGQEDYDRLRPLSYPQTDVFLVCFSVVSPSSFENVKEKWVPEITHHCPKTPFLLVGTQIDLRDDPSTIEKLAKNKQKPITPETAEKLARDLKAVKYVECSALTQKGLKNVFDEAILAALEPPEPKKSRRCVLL
Description: Recombinant human RhoA (0.1 μg; ab101594) was pretreated with cysteine-reactive compounds or DMSO for 1 hour at room temperature, followed by incubation with iodoacetamide-rhodamine (IA-Rh; 1 μM) for 1 hour at room temperature. The reaction was then quenched by boiling in sampling buffer. Samples were subjected to SDS-PAGE to separate proteins bands. In-gel fluorescence intensity was measured with a Chemidoc using setting for Rhodamine. Gel was subsequently stained with silver stain (Pierce) for visualization of protein content and covalent modification. Band intensity was quantified using ImageJ.
CL16 was identified for its strong and specific binding with RhoA in covalent ligand screening experiment by ABPP. ABPP is known as a powerful platform for covalent ligand screening, particularly for the identification of lead compounds targeting new hotspots for therapy. Competitive gel-based activity-based protein profiling (ABPP) experiment was performed on purified RhoA protein for screening its interactions with a library of cysteine-reactive covalent ligands with acrylamide or chloroacetamide warheads. RhoA protein for the first screening and on Rac1 and Cdc42 for the second screening to identify lead compounds with specific binding onto RhoA Cys16. […] The reaction mixture was then resolved by SDS-PAGE and in-gel fluorescence was imaged (FIG. 1A). […]

O=C(CCl)N1N=C(c2cc3ccccc3o2)CC1c1ccco1 (centres unmarked) [CL16]
body weight, treated vs untreated (SW620 xenograft; SW620 xenografts, FIG. 7F): no observable difference
tumor growth vs vehicle control (SW620 xenograft; nude mice, 10 mg/kg intraperitoneal): significantly inhibited tumor growth
cyclin A2 and cyclin B1 levels [1]: no significant changes
p21 and p27 protein levels [1]: increase in p21 and p27 protein levels
binding with Cdc42 (Cdc42): no observable binding

From patent US20250073209A1, “COVALENT TARGETING OF RhoA FOR CANCER THERAPY” (The University of Hong Kong, priority 2023, published 2025)
